The values that follow come from ChEMBL document CHEMBL5442741, “ASAP - In vitro kinase profile” (2024).

Test [1] deals with T1, cGMP-dependent protein kinase 1 (Homo sapiens) (UniProt Q13976).
T1 sequence (whole entry): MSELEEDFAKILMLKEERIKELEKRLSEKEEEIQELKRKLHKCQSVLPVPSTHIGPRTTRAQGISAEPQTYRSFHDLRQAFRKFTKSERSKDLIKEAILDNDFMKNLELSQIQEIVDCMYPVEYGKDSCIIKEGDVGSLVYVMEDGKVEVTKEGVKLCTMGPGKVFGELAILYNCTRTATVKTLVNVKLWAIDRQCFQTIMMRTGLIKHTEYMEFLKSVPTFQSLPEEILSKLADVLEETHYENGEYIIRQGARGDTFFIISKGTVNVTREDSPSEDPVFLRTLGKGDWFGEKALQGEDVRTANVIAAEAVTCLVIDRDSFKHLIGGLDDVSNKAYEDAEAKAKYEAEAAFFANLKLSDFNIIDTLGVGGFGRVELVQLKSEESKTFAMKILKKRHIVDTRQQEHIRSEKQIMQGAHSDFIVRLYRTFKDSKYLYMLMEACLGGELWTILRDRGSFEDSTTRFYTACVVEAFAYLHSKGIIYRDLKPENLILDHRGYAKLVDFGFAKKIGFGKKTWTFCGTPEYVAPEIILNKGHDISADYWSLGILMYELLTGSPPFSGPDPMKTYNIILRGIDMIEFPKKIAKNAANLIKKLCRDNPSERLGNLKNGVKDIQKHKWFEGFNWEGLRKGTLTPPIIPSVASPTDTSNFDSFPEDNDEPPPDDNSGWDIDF
Nature of the test: Enzymatic radiometric [Km ATP] KinaseProfiler LeadHunter assay, kinase: PKG1-alpha, catalogue number: 14-688KP The assay has been performed by Eurofins Discovery. The note with it: ATP concentration 90.0 uM, Test compound concentration 10.0 uM.

Test [2] deals with T2, MAP kinase-activated protein kinase 5 (Homo sapiens) (UniProt Q8IW41).
T2 sequence (whole entry): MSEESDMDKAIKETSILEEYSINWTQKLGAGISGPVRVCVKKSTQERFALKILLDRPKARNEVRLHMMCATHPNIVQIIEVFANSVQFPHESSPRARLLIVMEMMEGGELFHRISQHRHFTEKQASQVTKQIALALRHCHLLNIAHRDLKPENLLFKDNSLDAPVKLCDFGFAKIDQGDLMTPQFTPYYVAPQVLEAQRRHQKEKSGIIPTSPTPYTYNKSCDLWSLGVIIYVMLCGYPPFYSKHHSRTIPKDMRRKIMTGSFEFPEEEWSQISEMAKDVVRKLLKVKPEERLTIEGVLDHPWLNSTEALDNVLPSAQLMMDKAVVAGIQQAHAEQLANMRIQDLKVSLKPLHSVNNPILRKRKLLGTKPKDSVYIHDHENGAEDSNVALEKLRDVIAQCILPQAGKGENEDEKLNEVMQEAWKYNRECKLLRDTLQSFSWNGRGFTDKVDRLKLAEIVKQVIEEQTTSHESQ
Put plainly: Enzymatic radiometric [Km ATP] KinaseProfiler LeadHunter assay, kinase: PRAK, catalogue number: 14-334KP The assay has been performed by Eurofins Discovery. As to conditions: ATP concentration 15.0 uM, Test compound concentration 10.0 uM.

The target of test [3] is T3, Aurora kinase A (Homo sapiens) (UniProt O14965).
T3 sequence (whole entry): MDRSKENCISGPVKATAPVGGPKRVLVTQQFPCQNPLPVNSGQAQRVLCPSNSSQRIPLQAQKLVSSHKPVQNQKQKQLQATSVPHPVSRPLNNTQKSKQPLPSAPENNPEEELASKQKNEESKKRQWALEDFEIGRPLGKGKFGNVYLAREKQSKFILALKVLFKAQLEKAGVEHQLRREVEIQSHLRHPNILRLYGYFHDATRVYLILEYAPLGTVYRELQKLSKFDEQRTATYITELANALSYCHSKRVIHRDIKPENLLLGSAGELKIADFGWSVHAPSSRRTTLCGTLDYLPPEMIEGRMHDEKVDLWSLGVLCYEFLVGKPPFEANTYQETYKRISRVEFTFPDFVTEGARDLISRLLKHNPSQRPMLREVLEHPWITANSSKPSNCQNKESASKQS
Put plainly: Enzymatic radiometric [Km ATP] KinaseProfiler LeadHunter assay, kinase: Aurora-A, catalogue number: 14-511KP The assay has been performed by Eurofins Discovery. The note with it: ATP concentration 15.0 uM, Test compound concentration 10.0 uM.

The target in test [4] is Casein kinase II subunit alpha' (Homo sapiens) (UniProt P19784). Nature of the test: Enzymatic radiometric [Km ATP] KinaseProfiler LeadHunter assay, kinase: CK2-alpha2, catalogue number: 14-689KP The assay has been performed by Eurofins Discovery. The note with it: ATP concentration 10.0 uM, Test compound concentration 10.0 uM.
Chain of Casein kinase II subunit alpha' (Homo sapiens) (P19784 whole entry, looked up): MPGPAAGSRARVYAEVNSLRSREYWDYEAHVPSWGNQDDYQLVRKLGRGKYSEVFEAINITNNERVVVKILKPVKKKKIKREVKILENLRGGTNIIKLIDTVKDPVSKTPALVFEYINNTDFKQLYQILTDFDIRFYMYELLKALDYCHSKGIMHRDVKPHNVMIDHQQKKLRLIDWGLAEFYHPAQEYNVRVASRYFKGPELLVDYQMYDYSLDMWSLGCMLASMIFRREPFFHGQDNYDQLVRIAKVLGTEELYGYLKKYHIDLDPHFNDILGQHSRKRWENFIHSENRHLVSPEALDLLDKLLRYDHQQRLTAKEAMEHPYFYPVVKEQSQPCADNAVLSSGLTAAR
The target of test [5] is T4, Ephrin type-B receptor 4 (Homo sapiens) (UniProt P54760).
T4 sequence (whole entry): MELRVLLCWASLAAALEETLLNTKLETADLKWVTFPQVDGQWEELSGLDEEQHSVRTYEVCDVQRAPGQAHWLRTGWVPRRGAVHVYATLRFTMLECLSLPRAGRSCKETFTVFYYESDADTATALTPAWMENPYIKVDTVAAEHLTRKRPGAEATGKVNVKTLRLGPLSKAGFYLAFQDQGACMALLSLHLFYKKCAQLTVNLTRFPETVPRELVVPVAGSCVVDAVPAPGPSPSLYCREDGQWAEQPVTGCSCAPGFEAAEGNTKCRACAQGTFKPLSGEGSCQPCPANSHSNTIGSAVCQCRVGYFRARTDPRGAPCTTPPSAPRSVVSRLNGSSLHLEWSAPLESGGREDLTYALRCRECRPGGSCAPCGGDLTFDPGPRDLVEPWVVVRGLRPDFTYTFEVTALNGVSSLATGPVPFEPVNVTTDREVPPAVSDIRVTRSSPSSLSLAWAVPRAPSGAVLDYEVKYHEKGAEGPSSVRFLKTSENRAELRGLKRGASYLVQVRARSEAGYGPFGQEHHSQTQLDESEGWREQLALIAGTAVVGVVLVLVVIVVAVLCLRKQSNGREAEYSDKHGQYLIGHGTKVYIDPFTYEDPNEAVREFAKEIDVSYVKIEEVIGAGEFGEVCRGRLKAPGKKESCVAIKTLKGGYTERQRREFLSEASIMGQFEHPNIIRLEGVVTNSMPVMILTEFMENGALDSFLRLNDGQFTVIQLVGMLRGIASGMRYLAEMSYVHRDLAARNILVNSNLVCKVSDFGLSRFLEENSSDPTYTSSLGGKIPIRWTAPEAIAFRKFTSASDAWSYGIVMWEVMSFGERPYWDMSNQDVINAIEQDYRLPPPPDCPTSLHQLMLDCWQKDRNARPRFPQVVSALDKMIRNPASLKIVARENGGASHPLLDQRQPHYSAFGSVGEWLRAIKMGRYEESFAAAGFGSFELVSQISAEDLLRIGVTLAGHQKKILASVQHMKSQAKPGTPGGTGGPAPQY
Nature of the test: Enzymatic radiometric [Km ATP] KinaseProfiler LeadHunter assay, kinase: EphB4, catalogue number: 14-554KP The assay has been performed by Eurofins Discovery. As to conditions: ATP concentration 10.0 uM, Test compound concentration 10.0 uM.

“And” between values parts separate entries of the source, which are not always exact repeats. Equal values may be shown once.

Turning to `CC(C)[C@H](Nc1ncnc2[nH]ccc12)c1ccc2c(c1)S(=O)(=O)CCC2`, the Activity in test [1] was found to be 123%; in test [2] it was 102%; in test [3], 51%; in test [4], 87%; in test [5] it was 86%.

As to `Cc1nn(C)cc1-c1cc2c(N[C@H](c3ccc4c(c3)S(=O)(=O)CCC4)C(C)C)ncnc2[nH]1`, the Activity was 128% in test [1]; 82% in test [2]; 55% in test [3]; 92% in test [4]; 98% in test [5].

Consider `CC(C)[C@H](Nc1ncnc2[nH]c(-c3cnn(C)c3C#N)cc12)c1ccc2c(n1)OCCO2`, for which the Activity in test [1] worked out at 130%; in test [2], 84%; in test [3], 53%; in test [4] it was 95%; in test [5] it was 89%.

In the case of `CC(C)[C@@H](Nc1ncnc2[nH]ccc12)c1ccc2c(c1)S(=O)(=O)CCC2`, the Activity in test [1] turned out to be 88%; in test [2], 107%; in test [3] it was 57%; in test [4], 90%; in test [5], 91%.

With `CC(C)[C@@H](Nc1ncnc2[nH]c(-c3cnn(C)c3C#N)cc12)c1ccc2c(n1)OCCO2`, the Activity was 100% and 123% in test [1]; 95% and 89% in test [2]; 44% and 58% in test [3]; 86% and 93% in test [4]; 75% and 91% in test [5].

As to `C[C@H](C(=O)O)[C@@H](NC(=O)c1ncnc2[nH]ccc12)c1ccc(Br)cc1`, the Activity was 118% in test [1]; 88% in test [2]; 72% in test [3]; 91% in test [4]; 105% in test [5].

On to `CNC(=O)Cn1cc(-c2cc3c(N[C@@H](c4ccc5c(c4)S(=O)(=O)CCC5)C(C)C)ncnc3[nH]2)cn1`, for which the Activity in test [1] stood at 120%; in test [2], 89%; in test [3], 77%; in test [4], 88%; in test [5] it was 97%.

On to `COc1ccc([C@@H](Cc2nnn[nH]2)NC(=O)c2ncnc3[nH]ccc23)cc1`, for which the Activity in test [1] is 95%; in test [2], 95%; in test [3] it was 71%; in test [4], 88%; in test [5], 88%.

Consider `CC(C)[C@@H](Nc1ncnc2[nH]c(C(=O)N[C@@H]3CCN(C)C3)cc12)c1ccc2c(c1)S(=O)(=O)CCC2`, for which the Activity was 116% in test [1]; 111% in test [2]; 97% in test [3]; 98% in test [4]; 86% in test [5].

As for `Cn1ncc(-c2cc3c(N[C@@H](c4ccc5c(n4)OCCO5)C(C)(C)C)ncnc3[nH]2)c1C#N`, the Activity in test [1] was determined as 127%; in test [2], 86%; in test [3] it was 95%; in test [4] it was 92%; in test [5] it was 115%.

In the case of `COc1ccc([C@H](Cc2nnn[nH]2)NC(=O)c2ncnc3[nH]ccc23)cc1`, the Activity in test [1] is 121%; in test [2], 109%; in test [3], 84%; in test [4], 93%; in test [5], 106%.

On to `CNCc1cc(-c2cc3c(N[C@@H](c4ccc5c(c4)S(=O)(=O)CCC5)C(C)C)ncnc3[nH]2)co1`, for which the Activity in test [1] turned out to be 115%; in test [2], 122%; in test [3] it was 73%; in test [4] it was 90%; in test [5] it was 92%.
